The test system of assay [1] is d(CGTATACG)2 (DNA, duplex) CGTATACG
In words: UV melting at 260 nm. The conditions noted are these: 100 mM KCl, 5 mM MgCl2; 20 mM sodium cacodylate pH 7.3; 3 μM DNA, DNA:compound 1:4; 1 °C/min.

Assay [2] shares this test system. As to the kind of experiment: X-ray crystallography, 1.58 Å.

The structures appear in SMILES notation.

As to `c1ccc2c(NCCCCCNc3c4ccccc4nc4ccccc34)c3ccccc3nc2c1`, the Tm increase in assay [1] was ~ 8.6 °C. Moreover, the binding entry in assay [2] (50 mM NaCl, 10 mM MgCl2, 25 mM bis-tris pH 7.0, 15% MPD, 20 °C, 0.3 mM DNA, DNA:DA5 1:1) is given as “yes”.

Consider `c1ccc2c(NCCCCNc3c4ccccc4nc4ccccc34)c3ccccc3nc2c1`, for which the Tm increase in assay [1] was ~ 5.8 °C. Further, in assay [2] (200 mM KCl, 6 mM MnCl2, 50 mM MES pH 6.3, 10% PEG400, 20 °C, 0.5 mM DNA, 1 mM DA4), the binding result was “yes”.

The record behind these values is PMC11347135 (2024).
